Among the data in patent US20200247800A1, “SUBSTITUTED BICYCLIC HETEROCYCLIC COMPOUNDS AS NADPH OXIDASE INHIBITORS” (Glenmark Pharmaceuticals S.A., priority 2017, published 2020) are inhibition and IC50 values, retold here.

This test concerns the target T1, human NOX4 (Homo sapiens, UniProt Q9NPH5).
T1 construct: expressed in transfected cells; membrane fraction used
T1 sequence (Q9NPH5 1-578): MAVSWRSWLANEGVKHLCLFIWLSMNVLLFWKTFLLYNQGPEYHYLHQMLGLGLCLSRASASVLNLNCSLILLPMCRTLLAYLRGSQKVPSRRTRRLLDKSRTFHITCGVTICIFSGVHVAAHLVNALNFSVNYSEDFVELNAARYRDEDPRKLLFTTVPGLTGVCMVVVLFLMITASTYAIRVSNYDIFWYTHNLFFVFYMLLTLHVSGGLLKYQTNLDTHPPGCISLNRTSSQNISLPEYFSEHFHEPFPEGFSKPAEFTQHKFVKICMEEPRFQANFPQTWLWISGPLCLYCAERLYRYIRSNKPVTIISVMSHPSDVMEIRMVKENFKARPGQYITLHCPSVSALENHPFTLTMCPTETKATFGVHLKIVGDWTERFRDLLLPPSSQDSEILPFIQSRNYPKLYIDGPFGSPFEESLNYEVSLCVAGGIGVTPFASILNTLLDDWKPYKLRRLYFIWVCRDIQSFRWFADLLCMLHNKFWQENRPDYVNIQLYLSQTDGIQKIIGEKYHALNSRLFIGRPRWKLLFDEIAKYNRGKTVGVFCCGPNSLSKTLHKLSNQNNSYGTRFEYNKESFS
T1 sequence (P13498 1-195 partner): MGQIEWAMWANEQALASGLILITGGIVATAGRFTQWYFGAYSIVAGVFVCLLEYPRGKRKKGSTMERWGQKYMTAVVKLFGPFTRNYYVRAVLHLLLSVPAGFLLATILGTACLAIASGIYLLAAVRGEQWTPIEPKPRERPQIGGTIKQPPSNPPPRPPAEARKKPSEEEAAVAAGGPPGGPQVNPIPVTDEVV
Kind of test: Cell free membrane based in vitro NOX4 assay: H2O2 production by membranes expressing human NOX4, measured with Amplex Red. It counts as biochemical. Conditions: for inhibition at 1 µM: 1.0 μM compound, read-out: Percentage inhibition at 1.0 μM; for inhibition at 10 µM: 10.0 μM compound, read-out: Percentage inhibition at 10.0 μM; for pIC50: class symbols. In short, it runs like this: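 IC50 came from concentration-response curves fitted as % of the inhibitor-free maximum. H2O2 formation was monitored for 10 min via Amplex Red/HRP fluorescence (544/590 nm) after NADPH start. Membranes from a stable hNOX4/HEK line had 20 min exposure to inhibitor beforehand at pH 7.4.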

Molecules are shown by their SMILES. pIC50: −log10 of the molar value.

As to `COCCn1nc(C)c2c(=O)c(O)c(-c3c(F)cccc3F)[nH]c21` [Example 90, 6-(2,6-Difluorophenyl)-5-hydroxy-1-(2-methoxyethyl)-3-methyl-1H-pyrazolo[3,4-b]pyridin-4(7H)-one], the inhibition (usually the change of the read-out against control, counted positive when it falls) at 1 µM worked out at 100%; the inhibition at 10 µM came to 100%; the negative logarithm of the IC50 (pIC50) (commonly the negative decadic logarithm of the IC50, by convention in mol/L) was 7.00 to 7.30.

As to `CC(C)c1nn(C)c2[nH]c(-c3c(F)cccc3F)c(O)c(=O)c12` [Example 91, 6-(2,6-Difluorophenyl)-5-hydroxy-3-isopropyl-1-methyl-1H-pyrazolo[3,4-b]pyridin-4(7H)one], the inhibition at 1 µM stood at 98.3%, the inhibition at 10 µM was 87.1% and the pIC50 is 7.00 to 7.30.

For the compound `COCCCn1nc(C)c2c(=O)c(O)c(-c3c(F)cccc3F)[nH]c21` [Example 92, 6-(2,6-Difluorophenyl)-5-hydroxy-1-(3-methoxypropyl)-3-methyl-1H-pyrazolo[3,4-b]pyridin-4(7H)-one], the inhibition at 1 µM is 75.6%, the inhibition at 10 µM was 76.5% and the pIC50 is 6.82 to 7.00.

In the case of `Cc1ccc(F)c(-c2[nH]c3c(c(C)nn3C3CC3)c(=O)c2O)c1F` [Example 93, 1-Cyclopropyl-6-(2,6-difluoro-3-methylphenyl)-5-hydroxy-3-methyl-1H-pyrazolo[3,4-b]pyridin-4(7H)-one], the inhibition at 1 µM amounted to 69.1%, the inhibition at 10 µM came out at 79.6% and the negative logarithm of the IC50 (pIC50) is under 6.82.

With `Cc1nn(C2CC2)c2[nH]c(-c3c(F)cc(F)cc3F)c(O)c(=O)c12` [Example 94, 1-Cyclopropyl-5-hydroxy-3-methyl-6-(2,4,6-trifluorophenyl)-1H-pyrazolo[3,4-b]pyridin-4(7H)-one], the inhibition at 1 µM was determined as 72.5%, the inhibition at 10 µM turned out to be 80% and the pIC50 was under 6.82.

On to `CCn1nc(C)c2c(=O)c(O)c(-c3cccc(F)c3F)[nH]c21` [Example 95, 6-(2,3-Difluorophenyl)-1-ethyl-5-hydroxy-3-methyl-1H-pyrazolo[3,4-b]pyridin-4(7H)-one], for which the inhibition at 1 µM was found to be 71.1%, the inhibition at 10 µM was 62.6% and the pIC50 was under 6.82.

Regarding `Cc1nn(C2CC2)c2[nH]c(-c3cccc(F)c3F)c(O)c(=O)c12` [Example 96, 1-Cyclopropyl-6-(2,3-difluorophenyl)-5-hydroxy-3-methyl-1H-pyrazolo[3,4-b]pyridin-4(7H)-one], the inhibition at 1 µM turned out to be 67.3%, the inhibition at 10 µM was 72.3% and the negative logarithm of the IC50 (pIC50) is under 6.82.

Turning to `CCn1nc(C)c2c(=O)c(O)c(-c3c(F)cc(F)cc3F)[nH]c21` [Example 97, 1-Ethyl-5-hydroxy-3-methyl-6-(2,4,6-trifluorophenyl)-1H-pyrazolo[3,4-b]pyridin-4(7H)-one], the inhibition at 1 µM is 76.7%, the inhibition at 10 µM was determined as 78.2% and the pIC50 was under 6.82.

For the compound `O=c1c(O)c(-c2c(F)cccc2F)[nH]c2[nH]nc(C(F)(F)F)c12` [Example 98, 6-(2,6-Difluorophenyl)-5-hydroxy-3-(trifluoromethyl)-1H-pyrazolo[3,4-b]pyridin-4(7H)-one], the inhibition at 1 µM was 86.4%, the inhibition at 10 µM came to 93.4% and the pIC50 is 7.00 to 7.30.

With `CCn1nc(C(F)F)c2c(=O)c(O)c(-c3c(F)cccc3F)[nH]c21` [Example 99, 3-(Difluoromethyl)-6-(2,6-difluorophenyl)-1-ethyl-5-hydroxy-1H-pyrazolo[3,4-b]pyridin-4(7H)-one], the inhibition at 1 µM came to 71.3%, the inhibition at 10 µM stood at 85.1% and the negative logarithm of the IC50 (pIC50) was under 6.82.

Turning to `CCn1nc(C(F)(F)F)c2c(=O)c(O)c(-c3c(F)cccc3F)[nH]c21` [Example 100, 6-(2,6-Difluorophenyl)-1-ethyl-5-hydroxy-3-(trifluoromethyl)-1H-pyrazolo[3,4-b]pyridin-4(7H)-one], the inhibition at 1 µM is 66.7%, the inhibition at 10 µM was found to be 84.8% and the negative logarithm of the IC50 (pIC50) was under 6.82.

Consider `CCn1cnc2c(=O)c(O)c(-c3c(F)cccc3F)[nH]c21` [Example 101, 5-(2,6-Difluorophenyl)-3-ethyl-6-hydroxy-3H-imidazo[4,5-b]pyridin-7(4H)-one], for which the inhibition at 1 µM amounted to 69.7%, the inhibition at 10 µM was 88.6% and the negative logarithm of the IC50 (pIC50) was under 6.82.

Take `COCc1nn(C)c2[nH]c(-c3c(F)cccc3F)c(O)c(=O)c12` [Example 102, 6-(2,6-Difluorophenyl)-5-hydroxy-3-(methoxymethyl)-1-methyl-1H-pyrazolo[3,4-b]pyridin-4(7H)-one]: the inhibition at 1 µM was 86.2%, the inhibition at 10 µM was 91.5% and the negative-log IC50 (pIC50) is 7.00 to 7.30.

On to `CCc1nn(CC)c2[nH]c(-c3c(F)cccc3F)c(O)c(=O)c12` [Example 103, 6-(2,6-Difluorophenyl)-1,3-diethyl-5-hydroxy-1,7-dihydro-4H-pyrazolo[3,4-b]pyridin-4-one], for which the inhibition at 1 µM was found to be 99.4%, the inhibition at 10 µM was 100% and the negative logarithm of the IC50 (pIC50) is over 7.30.

As for `CCn1nc(C)c2c(=O)c(O)c(-c3cccc(C(F)(F)F)c3F)[nH]c21` [Example 104, 1-Ethyl-6-[2-fluoro-3-(trifluoromethyl)phenyl]-5-hydroxy-3-methyl-1,7-dihydro-4H-pyrazolo[3,4-b]pyridin-4-one], the inhibition at 1 µM was 99.8%, the inhibition at 10 µM was 96.9% and the negative-log IC50 (pIC50) is 6.82 to 7.00.

Turning to `CCn1ncc2c(=O)c(O)c(-c3c(F)cccc3F)[nH]c21` [Example 105, 6-(2,6-Difluorophenyl)-1-ethyl-5-hydroxy-1,7-dihydro-4H-pyrazolo[3,4-b]pyridin-4-one], the inhibition at 1 µM is 99.1%, the inhibition at 10 µM was determined as 100% and the pIC50 is under 6.82.

Regarding `Cc1n[nH]c2[nH]c(-c3c(F)cccc3F)c(O)c(=O)c12` [Example 106, 6-(2,6-Difluorophenyl)-5-hydroxy-3-methyl-1,7-dihydro-4H-pyrazolo[3,4-b]pyridin-4-one], the inhibition at 1 µM was determined as 100%, the inhibition at 10 µM was determined as 100% and the negative logarithm of the IC50 (pIC50) is 7.00 to 7.30.

Take `CCn1nc(C)c2c(=O)c(O)c(-c3ccccc3F)[nH]c21` [Example 107, 1-Ethyl-6-(2-fluorophenyl)-5-hydroxy-3-methyl-1,7-dihydro-4H-pyrazolo[3,4-b]pyridin-4-one]: the inhibition at 1 µM came out at 70.8%, the inhibition at 10 µM stood at 61.2% and the pIC50 is under 6.82.

For `Cc1nn(CC(C)C)c2[nH]c(-c3c(F)cccc3F)c(O)c(=O)c12` [Example 108, 6-(2,6-Difluorophenyl)-5-hydroxy-1-isobutyl-3-methyl-1H-pyrazolo[3,4-b]pyridin-4(7H)-one], the inhibition at 1 µM came to 70.7%, the inhibition at 10 µM is 77.9% and the pIC50 was 7.00 to 7.30.

`CCn1nc(C(F)(F)F)c2c(=O)c(O)c(-c3ccccc3Cl)[nH]c21` [Example 109, 6-(2-Chlorophenyl)-1-ethyl-5-hydroxy-3-(trifluoromethyl)-1H-pyrazolo[3,4-b]pyridin-4(7H)-one]: the inhibition at 1 µM was 60.5%, the inhibition at 10 µM amounted to 82.1% and the pIC50 was under 6.82.

For the compound `CCn1nc(C)c2c(=O)c(O)c(-c3ccccc3OC)[nH]c21` [Example 110, 1-Ethyl-5-hydroxy-6-(2-methoxyphenyl)-3-methyl-1H-pyrazolo[3,4-b]pyridin-4(7H)-one], the inhibition at 1 µM is 60.5%, the inhibition at 10 µM came to 63% and the pIC50 is under 6.82.

As for `CC(C)Cn1nc(C(F)(F)F)c2c(=O)c(O)c(-c3c(F)cccc3F)[nH]c21` [Example 111, 6-(2,6-Difluorophenyl)-5-hydroxy-1-isobutyl-3-(trifluoromethyl)-1H-pyrazolo[3,4-b]pyridin-4(7H)-one], the inhibition at 1 µM came to 56.4%, the inhibition at 10 µM stood at 81.7% and the negative-log IC50 (pIC50) is under 6.82.

Take `CCn1nc(C)c2c(=O)c(O)c(-c3ccc(F)cc3)[nH]c21` [Example 112, 1-Ethyl-6-(4-fluorophenyl)-5-hydroxy-3-methyl-1,7-dihydro-4H-pyrazolo[3,4-b]pyridin-4-one]: the inhibition at 1 µM turned out to be 44.1%.

On to `Cn1nc(-c2ccc(F)cc2)c2c(=O)c(O)c(-c3c(F)cccc3F)[nH]c21` [Example 113, 6-(2,6-Difluorophenyl)-3-(4-fluorophenyl)-5-hydroxy-1-methyl-1H-pyrazolo[3,4-b]pyridin-4(7H)-one], for which the inhibition at 1 µM stood at 91.3%, the inhibition at 10 µM is 92.3% and the negative-log IC50 (pIC50) is 7.00 to 7.30.

Regarding `COc1ccc(-c2[nH]c3c(c(C)nn3C3CC3)c(=O)c2O)c(F)c1` [Example 114, 1-Cyclopropyl-6-(2-fluoro-4-methoxyphenyl)-5-hydroxy-3-methyl-1H-pyrazolo[3,4-b]pyridin-4(7H)-one], the inhibition at 1 µM is 61%, the inhibition at 10 µM stood at 69.9% and the negative logarithm of the IC50 (pIC50) was under 6.82.
